In US11390580B2, “Anti-fungals targeting the synthesis of fungal shingolipids” (THE RESEARCH FOUNDATION FOR THE STATE UNIVERSITY OF NEW YORK, priority 2014, dated 2022):
Values after ≈ are worked out from the molar mass of the structure shown. Values joined by “and” are separate entries in the source; they are usually repeats but may differ in a detail not shown here. Equal entries are not always repeated. Where two headings read alike, the source gives them in different places.

Key:
Paecilomyces variotii = assay: In vitro susceptibility testing (MIC); assay type: cell-based; conditions: for BHBM 24 Hr 50% / BHBM 48 Hr 50%: MIC, QC strain
C. neoformans [1] = assay: In vitro killing assay (time-kill, CFU); assay type: cell-based, Cryptococcus neoformans
Protocol: At the illustrated time points, aliquots were taken and diluted and 100 μL was plated onto yeast peptone dextrose (YPD) plates. YPD plates were incubated in a 30° C. incubator and, after 72 hours, colony forming units (CFU) were counted and recorded.

C. neoformans [2] = assay: Resistance assay, daily passages in sub-MIC drug; conditions: 15 days of passages below the MIC
[3] = system: Golgi morphology of C. neoformans; assay: C6-NBD-ceramide staining of the Golgi; assay type: cell-based, Cryptococcus neoformans; conditions: 4 μg/ml
Protocol: (§1) The Golgi apparatus of C. neoformans and C. albicans was stained with C6-NBD-ceramide using a previously described protocol (Kmetzsch, L. et al. 2011), based on the property that this fluorescent lipid accumulates at the Golgi of either living or fixed cells (Pagano R. E. et al. 1989). […] Cell suspensions were then washed with the same buffer and incubated with C6-NBD-ceramide ([…]) for 16 h at 4° C. The cells were then incubated with bovine serum albumin (BSA, 1%) at 4° C. for 1 h to remove the excess of C6-NBD-ceramide. […] Louis, USA) for 30 min at room temperature. The cells were washed again with PBS and stained cell suspensions were mounted over glass slides as described above and analyzed under an Axioplan 2 (Zeiss, Germany).

Solubility = assay type: physicochemical; conditions: at 1 mg/ml concentration
A549 cell line = assay: In vitro toxicity; assay type: cell-based
Gcs1 = Gcs1 (Cryptococcus neoformans, UniProt J9W453); assay: In vitro Gcs1 activity in cell lysate
Pneumocystis murina = assay: In vitro testing by ATP content (luciferin-luciferase); conditions: for inhibition at 0.1 µg/mL / inhibition at 1 µg/mL / inhibition at 10 µg/mL / inhibition at 100 µg/mL: read-out: percentage inhibition of ATP
Coccidioides spp = assay: microbe, parasite or virus in culture; assay type: cell-based; conditions: for BHBM 48 Hr 50%: MIC, FTL strains
[4] = system: Golgi morphology of C. albicans; assay: C6-NBD-ceramide staining of the Golgi; assay type: cell-based, Candida albicans; conditions: 4 μg/ml
Protocol: as §1

E. coli DH5α = assay: Antibacterial activity, LB agar well diffusion; conditions: up to 160 μg/mL, 30° C., 24 hr
[5] = In vivo toxicity in uninfected mice
[6] = system: synthesis of GlcCer in mammalian (J774) cells; assay: In vivo labeling with 3H palmitate, TLC of GlcCer; assay type: cell-based, murine; conditions: 3H palmitate labeling
P. aeruginosa PA14 = assay: Antibacterial activity, LB agar well diffusion; conditions: up to 160 μg/mL, 30° C., 24 hr
Candida spp = assay: In vitro susceptibility testing; assay type: cell-based; conditions: most Candida spp examined
Candida krusei = assay: In vitro susceptibility testing (MIC); assay type: cell-based; conditions: for BHBM 24 Hr 50% / BHBM 48 Hr 50%: MIC, QC strain
L2 cell line = assay: In vitro toxicity; assay type: cell-based
C. neoformans H99 = assay: Animal studies for cryptococcosis (intranasal infection); assay type: in vivo, mice

Sequence of Gcs1 (J9W453 whole entry): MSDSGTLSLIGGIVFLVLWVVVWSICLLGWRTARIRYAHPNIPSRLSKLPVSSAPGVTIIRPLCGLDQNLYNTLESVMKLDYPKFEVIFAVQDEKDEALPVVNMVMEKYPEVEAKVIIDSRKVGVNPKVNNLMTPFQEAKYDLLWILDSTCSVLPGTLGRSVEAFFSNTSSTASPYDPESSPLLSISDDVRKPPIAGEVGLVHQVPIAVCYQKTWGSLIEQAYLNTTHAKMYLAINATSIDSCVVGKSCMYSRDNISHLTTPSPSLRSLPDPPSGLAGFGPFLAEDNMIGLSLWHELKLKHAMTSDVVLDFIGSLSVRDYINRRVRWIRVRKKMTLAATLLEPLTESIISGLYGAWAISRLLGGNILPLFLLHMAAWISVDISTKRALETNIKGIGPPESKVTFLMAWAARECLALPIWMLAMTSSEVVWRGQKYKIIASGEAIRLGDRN

In the case of Cc1ccccc1C(=O)NN=Cc1ccc(O)c(Br)c1 [BHBM, N′-(3-bromo-4-hydroxybenzylidene)-2-methylbenzohydrazide], the “in vitro activity” value (Paecilomyces variotii) is reported as “not active”, the “BHBM 24 Hr 50%” value (Paecilomyces variotii) is reported as 8 and the “BHBM 48 Hr 50%” value (Paecilomyces variotii) is reported as over 16. The “BHBM 24 Hr 50%” value (Paecilomyces variotii; first listing r7-r78) was 8, the “BHBM 48 Hr 50%” value (Paecilomyces variotii; first listing r7-r78) was over 16 and the MIC range (Paecilomyces variotii; QC, Fungus Testing Lab) was over 16 µg/mL. For the same compound, the “incubation required to kill about 50% of the cells” value (C. neoformans [1]) was “at least 72 hours”, the type of killing (C. neoformans [1]; time-kill assay) was “concentration-dependent killing” and the development of resistance (C. neoformans [2]) was “do not develop resistance”. For the same compound, the Golgi morphology [3] was “significant alterations in the Golgi morphology”, the DMSO required (Solubility) was 30% and the toxicity (A549 cell line) was “slight to moderate toxicity”. The “in vitro activity of Gcs1” value (Gcs1) was “does not inhibit”, the IC50 (Pneumocystis murina; 24 h, read-out: IC50, P. murina) was 1.02 µg/mL (≈ 3.06 µM) and the inhibition at 0.1 µg/mL (Pneumocystis murina; 24 h) was 6.64%. For the same compound, the inhibition at 1 µg/mL (Pneumocystis murina; 24 h) was 66.2%, the inhibition at 10 µg/mL (Pneumocystis murina; 24 h) was 88.2% and the inhibition at 100 µg/mL (Pneumocystis murina; 24 h) was 97%. The IC50 (Pneumocystis murina; 48 h, read-out: IC50, P. murina) was under 0.01 µg/mL, the inhibition at 0.1 µg/mL (Pneumocystis murina; 48 h) was 76% and the inhibition at 1 µg/mL (Pneumocystis murina; 48 h) was 87.6%. For the same compound, the inhibition at 10 µg/mL (Pneumocystis murina; 48 h) was 94.6%, the inhibition at 100 µg/mL (Pneumocystis murina; 48 h) was 98.9% and the IC50 (Pneumocystis murina; 72 h, read-out: IC50, P. murina) was under 0.01 µg/mL. For the same compound, the inhibition at 0.1 µg/mL (Pneumocystis murina; 72 h) was 63.8%, the inhibition at 1 µg/mL (Pneumocystis murina; 72 h) was 74.6% and the inhibition at 10 µg/mL (Pneumocystis murina; 72 h) was 93.6%. For the same compound, the inhibition at 100 µg/mL (Pneumocystis murina; 72 h) was 99.4%, the IC50 (Pneumocystis murina; 96 h, read-out: IC50, P. murina) was 2.02 µg/mL (≈ 6.06 µM) and the inhibition at 0.1 µg/mL (Pneumocystis murina; 96 h) was 16.6%. It also gave an inhibition at 1 µg/mL (Pneumocystis murina; 96 h) of 44.5%, an inhibition at 10 µg/mL (Pneumocystis murina; 96 h) of 66.7% and an inhibition at 100 µg/mL (Pneumocystis murina; 96 h) of 91.5%. The IC50 (Pneumocystis murina; read-out: activity class by IC50, P. murina) was under 0.01 µg/mL, the MIC range (Coccidioides spp; 10 Fungus Testing Lab strains) was 8 to 16 µg/mL and the MIC (Coccidioides spp; Coccidioides, read-out: MIC (moderately active)) was 8 to 16 µg/mL (≈ 24 to 48 µM). For the same compound, the “BHBM 48 Hr 50%” value (Coccidioides spp) was 16 and 8 and >16, the “BHBM 48 Hr 50%” value (Coccidioides spp; first listing r7-r78) was 8 and 16 and the Golgi morphology [4] was “changes in the Golgi morphology were dramatic”. For the same compound, the zone of inhibition (E. coli DH5α) was “No zone of inhibition”, the “liver Aspartate aminotransferase (AST)” value ([5]; 1.2 mg/kg/day intraperitoneally for 60 days) was 125±75 U/L and the “other blood parameters for liver and kidney function” value ([5]; 60 days) was “normal”. For the same compound, the “histological analysis of organs vs untreated uninfected mice” value ([5]; lungs, brains, kidney, spleen, liver, 60 days) was “no difference”, the “appearance, weight, physical activity and behavior” value ([5]; treated daily for 60 days) was “appeared normal” and the “inhibition of the synthesis of GlcCer” value [6] was “no significant changes”. The “inhibition of the synthesis of GlcCer” value ([6]; listed as #5271226) was “not in mammalian (J774) cells”, the zone of inhibition (P. aeruginosa PA14) was “No zone of inhibition” and the in vitro susceptibility (Candida spp) was “resistant”. The MIC range (Candida krusei; 1 MDP Lab strain) was 32 µg/mL (≈ 96 µM), the MIC range (Candida krusei; ATCC 6258, MDP Lab) was 16 µg/mL (≈ 48 µM) and the “BHBM 24 Hr 50%” value (Candida krusei) was 4. The “BHBM 48 Hr 50%” value (Candida krusei) was 8, the “BHBM 24 Hr 50%” value (Candida krusei; first listing r7-r78) was 4 and the “BHBM 48 Hr 50%” value (Candida krusei; first listing r7-r78) was 8. For the same compound, the MIC (Candida krusei; Pichia kudriavzevii, read-out: MIC (moderately active)) was 8 to 16 µg/mL (≈ 24 to 48 µM), the MIC range (Candida krusei; QC, Fungus Testing Lab) was 8 µg/mL (≈ 24 µM) and the toxicity (L2 cell line) was “slight to moderate toxicity”. The mice surviving infection (C. neoformans H99; 1.2 mg/Kg/day intraperitoneally, up to 60 days) was 90%, the “fungal burden in brain” value (C. neoformans H99; 1.2 mg/Kg/day, day 60) was “No C. neoformans cells were found in brains” and the “fungal burden in lung” value (C. neoformans H99; 1.2 mg/Kg/day, day 60, compared to infected untreated mice) was “decrease the fungal burden in the lung”. The brain histology (C. neoformans H99; day 60) was “no fungal cells and normal structure” and the lung histology (C. neoformans H99; day 60) was “granulomatous response limited in few areas of the lung”.
